PubChem BioAssay (NCI)
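Results reflect a 48-hour exposure of cells in 96-well plates to compound at five concentrations. The concentration for full growth arrest is given as TGI.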

Key:
Assay in all cases: inhibition of tumour cell growth, NCI panel, 48 h
[1] = test system: 786-0 renal
[2] = test system: A498 renal
[3] = test system: A549 NSCLC
[4] = test system: ACHN renal
[5] = test system: BT-549 breast
[6] = test system: CAKI-1 renal
[7] = test system: CCRF-CEM leukemia
[8] = test system: COLO 205 colon
[9] = test system: DU-145 prostate
[10] = test system: EKVX NSCLC
[11] = test system: HCC-2998 colon
[12] = test system: HCT-116 colon
[13] = test system: HCT-15 colon
[14] = test system: HL-60(TB) leukemia
[15] = test system: HOP-62 NSCLC
[16] = test system: HOP-92 NSCLC
[17] = test system: HS 578T breast
[18] = test system: HT29 colon
[19] = test system: IGROV1 ovarian
[20] = test system: K-562 leukemia
[21] = test system: LOX IMVI melanoma
[22] = test system: M14 melanoma
[23] = test system: MCF7 breast
[24] = test system: MDA-MB-231 breast
[25] = test system: MDA-MB-435
[26] = test system: MDA-N
[27] = test system: MOLT-4 leukemia
[28] = test system: NCI-H226 lung
[29] = test system: NCI-H23 lung
[30] = test system: NCI-H460 lung
[31] = test system: NCI-H522 lung
[32] = test system: NCI/ADR-RES ovarian
[33] = test system: OVCAR-3 ovarian
[34] = test system: OVCAR-4 ovarian
[35] = test system: OVCAR-5 ovarian
[36] = test system: OVCAR-8 ovarian
[37] = test system: PC-3 prostate
[38] = test system: RPMI-8226 leukemia
[39] = test system: RXF 393 renal
[40] = test system: SF-268 CNS
[41] = test system: SF-295 CNS
[42] = test system: SF-539 CNS
[43] = test system: SK-MEL-2 melanoma
[44] = test system: SK-MEL-28 melanoma
[45] = test system: SK-MEL-5 melanoma
[46] = test system: SN12C renal
[47] = test system: SNB-19 CNS
[48] = test system: SR leukemia
[49] = test system: SW-620 colon
[50] = test system: T-47D breast
[51] = test system: TK-10 renal
[52] = test system: U251 CNS
[53] = test system: UACC-257 melanoma
[54] = test system: UACC-62 melanoma
[55] = test system: UO-31 renal
[56] = test system: KM12 colon
[57] = test system: SNB-75 CNS

Measured: TGI

CCOC(=O)N1CCNCCN(C(=O)OCC)CCNCC1
> 100 µM: [1] | [2] | [3] | [4] | [5] | [6] | [7] | [8] | [9] | [10] | [11] | [12] | [13] | [14] | [15] | [16] | [17] | [18] | [19] | [20] | [21] | [22] | [23] | [24] | [25] | [26] | [27] | [28] | [29] | [30] | [31] | [32] | [33] | [34] | [35] | [36] | [37] | [38] | [39] | [40] | [41] | [42] | [43] | [44] | [45] | [46] | [47] | [48] | [49] | [50] | [51] | [52] | [53] | [54] | [55]

O=C(/C=C\c1ccccc1)Oc1ccc(/C=C2\CCC/C(=C\c3ccc(OC(=O)/C=C\c4ccccc4)cc3)C2=O)cc1
> 100 µM: [1] | [3] | [4] | [5] | [6] | [7] | [8] | [9] | [10] | [11] | [12] | [13] | [14] | [15] | [16] | [17] | [18] | [56] | [21] | [22] | [23] | [24] | [25] | [26] | [27] | [29] | [30] | [31] | [32] | [33] | [34] | [35] | [36] | [37] | [38] | [40] | [41] | [42] | [43] | [44] | [45] | [46] | [47] | [57] | [48] | [49] | [50] | [51] | [52] | [53] | [54] | [55]
